Assay results reported in ChEMBL document CHEMBL1201862, “PubChem BioAssay data set” (2004).
Calls of active or inactive are those of the source.

Legend:
[1] = test system: Streptococcus sp. 'group A'; experiment: Streptococcus pyogenes SK(-)GAS viability under kanamycin – luminescence, BacTiterGlo, confirmation, counter-screen for streptokinase expression inhibitor project, dose response (AID 1900); type: functional, organism-based
Streptokinase A = target: T1, Streptokinase A (Streptococcus pyogenes serotype M1, UniProt P10520); experiment: viability-normalized secreted streptokinase activity reduction – plasminogen activation absorbance, OD405, dose response (AID 1914); type: functional, Streptococcus pyogenes M1 GAS;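 further: secreted streptokinase activity via plasminogen activation per viability signal from cell pellet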
T1 sequence (P10520 whole entry): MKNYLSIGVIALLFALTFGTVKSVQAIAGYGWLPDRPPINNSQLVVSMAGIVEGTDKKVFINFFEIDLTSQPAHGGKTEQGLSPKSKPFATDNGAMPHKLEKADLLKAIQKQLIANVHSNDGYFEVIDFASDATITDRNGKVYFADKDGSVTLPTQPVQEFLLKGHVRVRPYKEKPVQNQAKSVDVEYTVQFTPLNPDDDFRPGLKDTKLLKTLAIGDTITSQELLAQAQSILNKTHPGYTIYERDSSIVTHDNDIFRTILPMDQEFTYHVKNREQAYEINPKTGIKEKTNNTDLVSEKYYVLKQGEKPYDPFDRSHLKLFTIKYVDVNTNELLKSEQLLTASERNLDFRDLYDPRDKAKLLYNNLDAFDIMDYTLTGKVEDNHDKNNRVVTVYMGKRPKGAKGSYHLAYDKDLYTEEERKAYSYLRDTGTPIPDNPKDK

[2] = Trypanosoma cruzi growth suppression in host cells – NIH3T3 host cells, beta-gal luminescence, confirmation (AID 2044); type: functional, cell-based;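 further: intracellular parasites grown in NIH/3T3 mouse fibroblasts as host cells; luminescent beta-galactosidase reporter signal from transgenic T. cruzi replicating inside host cells; inhibitors lower the luminescence signal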
[3] = NIH3T3 cell viability loss – ATP luminescence, mouse fibroblasts, counter-screen, dose response (AID 2010); type: functional, cell-based;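 further: cells exposed to compound for about 90 hours before reading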
Streptococcus = experiment: GAS UMAA2166 growth inhibition – luminescence, BacTiterGlo, counter-screen for streptokinase expression inhibitor project, dose response (AID 1915); type: functional, organism-based;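 further: potency for reduction of bacterial viability or growth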
[4] = Luminescence Cell-Based Dose Retest to Confirm Inhibitors of Cancer Stem Cells. [Related pubchem assays (depositor defined):AID2717, AID2721]; type: functional; conditions: Homo sapiens
[5] = target: T2, Heat shock factor protein 1 (Mus musculus, UniProt P38532); experiment: enhancement of HSF1-driven luciferase signal – cell-based, NIH3T3, luminescence, dose retest, confirmation (AID 435004); type: functional;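 further: stress induced by proteasome inhibitor MG132 added 30 min after compound; luciferase reporter driven by HSF1 response element in NIH3T3 cells; actives raise luminescence as potentiators of the MG132 stress response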
T2 sequence (P38532 whole entry): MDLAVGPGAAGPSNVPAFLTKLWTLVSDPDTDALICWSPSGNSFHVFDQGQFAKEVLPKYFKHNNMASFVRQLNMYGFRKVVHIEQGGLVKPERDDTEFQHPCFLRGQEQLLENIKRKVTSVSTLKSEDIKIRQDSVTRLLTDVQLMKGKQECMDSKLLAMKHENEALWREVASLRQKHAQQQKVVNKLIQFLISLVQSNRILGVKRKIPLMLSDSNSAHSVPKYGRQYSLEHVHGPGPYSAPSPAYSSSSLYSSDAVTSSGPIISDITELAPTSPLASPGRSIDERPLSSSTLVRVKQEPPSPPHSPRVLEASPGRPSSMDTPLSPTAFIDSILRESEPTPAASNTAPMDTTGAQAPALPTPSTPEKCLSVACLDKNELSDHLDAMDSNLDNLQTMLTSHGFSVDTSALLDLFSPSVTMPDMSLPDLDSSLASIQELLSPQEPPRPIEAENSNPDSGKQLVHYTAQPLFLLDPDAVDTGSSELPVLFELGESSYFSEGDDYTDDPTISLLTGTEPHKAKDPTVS

[6] = target: T3, Replicative DNA helicase DnaB (Mycobacterium tuberculosis, UniProt P9WMR3); experiment: DnaB intein splicing inhibitors, dose response, biochemical, cell-free fluorescence (AID 449749); type: functional
T3 sequence (P9WMR3 whole entry): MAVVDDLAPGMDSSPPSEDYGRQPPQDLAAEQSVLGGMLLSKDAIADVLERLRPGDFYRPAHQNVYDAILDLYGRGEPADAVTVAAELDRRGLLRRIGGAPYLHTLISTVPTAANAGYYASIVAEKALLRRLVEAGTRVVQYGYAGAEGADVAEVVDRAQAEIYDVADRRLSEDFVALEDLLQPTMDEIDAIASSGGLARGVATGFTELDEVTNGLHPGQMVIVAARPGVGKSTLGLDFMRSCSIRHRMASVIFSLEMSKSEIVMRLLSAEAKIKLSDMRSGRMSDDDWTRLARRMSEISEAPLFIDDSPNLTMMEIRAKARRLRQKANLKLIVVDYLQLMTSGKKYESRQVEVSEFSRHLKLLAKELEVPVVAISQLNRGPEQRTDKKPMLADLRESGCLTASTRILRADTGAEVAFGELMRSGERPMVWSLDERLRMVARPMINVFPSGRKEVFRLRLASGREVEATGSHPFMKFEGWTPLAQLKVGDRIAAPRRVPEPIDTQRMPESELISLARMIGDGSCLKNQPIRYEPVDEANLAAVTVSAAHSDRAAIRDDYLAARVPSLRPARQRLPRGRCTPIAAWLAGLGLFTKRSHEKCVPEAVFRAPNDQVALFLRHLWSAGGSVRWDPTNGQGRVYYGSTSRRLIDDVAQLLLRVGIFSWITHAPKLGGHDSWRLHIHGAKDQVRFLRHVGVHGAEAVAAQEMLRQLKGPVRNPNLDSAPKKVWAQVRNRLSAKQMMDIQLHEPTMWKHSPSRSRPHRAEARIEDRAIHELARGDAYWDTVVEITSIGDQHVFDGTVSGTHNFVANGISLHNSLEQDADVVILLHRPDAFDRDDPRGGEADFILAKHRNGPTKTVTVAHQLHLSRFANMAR

Protein RecA = target: T4, Protein RecA (Mycobacterium tuberculosis, UniProt P9WHJ3); experiment: Fluorescence Cell-Free Homogeneous Dose Retest to Identify Inhibitors of RecA-Intein Splicing Activity. [Related pubchem assays (depositor defined):AID2097, AID2223, AID489010, AID492950]; type: functional
T4 sequence (P9WHJ3 whole entry): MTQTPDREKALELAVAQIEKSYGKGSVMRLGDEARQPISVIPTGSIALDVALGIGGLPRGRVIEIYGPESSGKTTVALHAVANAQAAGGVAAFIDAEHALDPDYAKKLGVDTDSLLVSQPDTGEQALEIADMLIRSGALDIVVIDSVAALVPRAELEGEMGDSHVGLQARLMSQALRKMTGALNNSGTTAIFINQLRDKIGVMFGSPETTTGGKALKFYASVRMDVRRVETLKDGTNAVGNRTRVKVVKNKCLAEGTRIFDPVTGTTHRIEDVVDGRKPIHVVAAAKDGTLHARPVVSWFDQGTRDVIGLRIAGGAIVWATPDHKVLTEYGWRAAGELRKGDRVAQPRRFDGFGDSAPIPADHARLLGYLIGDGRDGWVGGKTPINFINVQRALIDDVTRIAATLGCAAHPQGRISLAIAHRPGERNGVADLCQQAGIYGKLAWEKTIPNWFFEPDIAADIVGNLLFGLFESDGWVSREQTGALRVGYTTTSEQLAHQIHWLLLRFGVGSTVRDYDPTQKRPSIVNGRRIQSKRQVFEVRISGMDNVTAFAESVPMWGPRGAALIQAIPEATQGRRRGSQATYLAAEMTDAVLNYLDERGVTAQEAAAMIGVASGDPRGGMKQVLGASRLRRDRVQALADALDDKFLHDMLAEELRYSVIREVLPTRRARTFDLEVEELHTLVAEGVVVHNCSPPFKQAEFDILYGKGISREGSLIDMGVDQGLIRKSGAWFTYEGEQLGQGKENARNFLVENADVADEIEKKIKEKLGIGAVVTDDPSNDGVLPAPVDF

Melanocortin receptor 4 = Melanocortin receptor 4 (Homo sapiens, UniProt P32245); type: functional, cell-based;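 further: Cell-based assay with luminescence read-out, confirmatory dose-response testing for agonist activity of biased ligands at MC4R; human U2OS cells with tagged receptor and beta-arrestin; potency of agonists that increase receptor coupling to beta-arrestin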
Melanocortin receptor 4, sequence (P32245 whole entry): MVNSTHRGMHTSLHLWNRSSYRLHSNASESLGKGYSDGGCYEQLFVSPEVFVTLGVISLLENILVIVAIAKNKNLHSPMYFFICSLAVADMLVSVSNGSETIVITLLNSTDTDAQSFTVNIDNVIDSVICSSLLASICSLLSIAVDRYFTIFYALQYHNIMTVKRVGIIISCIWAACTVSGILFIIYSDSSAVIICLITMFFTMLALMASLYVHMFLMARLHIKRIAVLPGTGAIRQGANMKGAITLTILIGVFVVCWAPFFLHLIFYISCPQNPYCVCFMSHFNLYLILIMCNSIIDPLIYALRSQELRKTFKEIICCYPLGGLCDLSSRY

[7] = target: Nuclear receptor subfamily 5 group A member 2 (Homo sapiens, UniProt O00482); type: functional, cell-based;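 further: HEK293T cells transfected with LRH-1 and a StAR promoter luciferase reporter; potency for inhibitors that lower LRH-1 driven reporter light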
Nuclear receptor subfamily 5 group A member 2, sequence (O00482 whole entry): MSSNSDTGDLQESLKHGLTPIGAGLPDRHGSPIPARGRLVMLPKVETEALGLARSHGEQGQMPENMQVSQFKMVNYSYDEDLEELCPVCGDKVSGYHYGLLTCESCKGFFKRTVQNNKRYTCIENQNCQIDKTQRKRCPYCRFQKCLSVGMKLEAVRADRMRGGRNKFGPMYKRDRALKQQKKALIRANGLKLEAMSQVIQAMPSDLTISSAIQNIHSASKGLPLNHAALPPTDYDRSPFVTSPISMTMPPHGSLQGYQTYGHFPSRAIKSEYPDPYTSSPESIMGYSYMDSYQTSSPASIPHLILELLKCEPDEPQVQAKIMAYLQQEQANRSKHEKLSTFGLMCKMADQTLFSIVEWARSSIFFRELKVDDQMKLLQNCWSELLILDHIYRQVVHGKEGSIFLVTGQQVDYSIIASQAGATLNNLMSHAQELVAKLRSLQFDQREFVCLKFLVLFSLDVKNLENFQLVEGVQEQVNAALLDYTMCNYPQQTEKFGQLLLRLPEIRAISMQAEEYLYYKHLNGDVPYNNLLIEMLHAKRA

Steroidogenic factor 1 = Steroidogenic factor 1 (Homo sapiens, UniProt Q13285); experiment: Counterscreen for inverse agonists of the liver receptor homolog-1 (LRH-1; NR5A2): Luminescence-based cell-based high throughput dose response assay to identify inverse agonists of the Steroidogenic Factor 1 Nuclear Receptor (SF1; NR5A1).; type: functional
Steroidogenic factor 1, sequence (Q13285 whole entry): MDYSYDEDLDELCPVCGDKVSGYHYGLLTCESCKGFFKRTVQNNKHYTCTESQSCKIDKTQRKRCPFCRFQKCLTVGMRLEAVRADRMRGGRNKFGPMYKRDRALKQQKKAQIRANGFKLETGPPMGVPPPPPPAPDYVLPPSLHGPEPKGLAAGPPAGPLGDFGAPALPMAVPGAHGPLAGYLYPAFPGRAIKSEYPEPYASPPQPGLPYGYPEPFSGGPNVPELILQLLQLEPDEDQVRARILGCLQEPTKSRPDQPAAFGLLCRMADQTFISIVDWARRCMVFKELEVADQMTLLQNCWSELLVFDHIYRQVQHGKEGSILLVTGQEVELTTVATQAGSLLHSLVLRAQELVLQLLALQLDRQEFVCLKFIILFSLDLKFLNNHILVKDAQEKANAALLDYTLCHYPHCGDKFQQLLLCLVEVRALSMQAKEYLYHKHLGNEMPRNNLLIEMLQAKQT

[8] = nonselective StAR promoter luciferase inhibitors – cell-based, luminescence, luciferase reporter, counter-screen for LRH-1 inverse agonist project, dose response (AID 651969); type: functional
[9] = THP-1 cell cytotoxicity, dose response, cytotoxicity control for non-replicating M. tuberculosis project (AID 489025); type: functional
[10] = Vero E6 cell cytotoxicity, dose response, cytotoxicity control for non-replicating M. tuberculosis project, secondary assay (AID 492998); type: functional, VeroE6; conditions: Vero C1008
cells = type: functional
INS1 = experiment: INS-1E survival protection against cytokine death – cell-based, luminescence, retest, dose response (AID 449756); type: functional; conditions: Rattus norvegicus;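 further: cell death triggered by IL-1 beta plus TNF-alpha plus IFN-gamma mixture; protective hits raise ATP signal compared with cytokine alone wells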
[11] = reduction of Shn3 3'UTR-driven luciferase in osteoblasts – cell-based, Clone20 osteoblasts, firefly luciferase, cherry-picked, dose response (AID 624132); type: functional;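 further: firefly luciferase luminescence from reporter carrying the Shn3 3'UTR in osteoblasts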
[12] = loss of viability in HepG2 cells – cell-based, CellTiter-Glo, cherry-picked, cytotoxicity control for Shn3 inhibitor project, dose response (AID 624134); type: functional
[13] = non-specific 3'UTR reporter inhibition in Clone20-Shn3RL – cell-based, Renilla luciferase, cherry-picked, counter-screen for Shn3 inhibitor project, dose response (AID 624133); type: functional
[14] = target: Heat shock protein HSP 90-alpha (Homo sapiens, UniProt P07900); type: functional, organism-based
Mu-type opioid receptor = Mu-type opioid receptor (Homo sapiens, UniProt P35372); type: functional, cell-based;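 further: U2OS cells with beta-arrestin recruitment to OPRM1 by beta-gal complementation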
Mu-type opioid receptor, sequence (P35372 whole entry): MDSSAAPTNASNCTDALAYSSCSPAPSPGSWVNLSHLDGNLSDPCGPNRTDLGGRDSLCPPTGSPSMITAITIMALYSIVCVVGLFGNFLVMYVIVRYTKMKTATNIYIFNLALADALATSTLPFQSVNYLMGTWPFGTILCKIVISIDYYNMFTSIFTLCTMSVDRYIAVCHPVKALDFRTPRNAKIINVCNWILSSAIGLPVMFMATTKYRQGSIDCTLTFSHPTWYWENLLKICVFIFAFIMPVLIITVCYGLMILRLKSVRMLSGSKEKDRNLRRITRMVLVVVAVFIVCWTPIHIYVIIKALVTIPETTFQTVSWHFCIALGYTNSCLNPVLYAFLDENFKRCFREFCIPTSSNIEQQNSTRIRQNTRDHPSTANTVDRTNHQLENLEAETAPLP

[15] = target: 5-hydroxytryptamine receptor 2A (Mus musculus, UniProt P35363); type: functional, cell-based;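 further: CHO-K1 cells with tagged receptor and beta-arrestin; agonist potency measured as compound-induced activation of the receptor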
5-hydroxytryptamine receptor 2A, sequence (P35363 whole entry): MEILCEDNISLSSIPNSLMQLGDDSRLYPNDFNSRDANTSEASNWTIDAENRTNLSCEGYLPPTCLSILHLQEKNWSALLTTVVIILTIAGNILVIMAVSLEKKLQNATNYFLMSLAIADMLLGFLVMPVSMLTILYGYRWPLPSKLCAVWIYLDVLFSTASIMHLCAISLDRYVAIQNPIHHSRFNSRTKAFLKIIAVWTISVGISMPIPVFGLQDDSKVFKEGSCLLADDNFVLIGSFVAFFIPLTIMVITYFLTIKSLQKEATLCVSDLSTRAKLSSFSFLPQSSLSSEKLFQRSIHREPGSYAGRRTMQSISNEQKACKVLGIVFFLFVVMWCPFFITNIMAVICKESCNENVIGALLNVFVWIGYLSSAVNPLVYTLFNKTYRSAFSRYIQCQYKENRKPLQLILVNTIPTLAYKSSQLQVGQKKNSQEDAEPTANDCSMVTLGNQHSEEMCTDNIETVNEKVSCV

[16] = cytotoxicity toward MDA-MB-231 breast cancer cells – cell-based, CellTiter-Glo luminescence, cherry-pick, cytotoxicity control for RAD54 inhibitor project, dose response (AID 651692); type: functional
[17] = target: T5, DNA repair and recombination protein RAD54-like (Homo sapiens, UniProt Q92698); experiment: RAD54 Holliday junction migration blockers – biochemical, fluorescence, cherry-picked samples, dose series, confirmation (AID 651657); type: functional
T5 sequence (Q92698 whole entry): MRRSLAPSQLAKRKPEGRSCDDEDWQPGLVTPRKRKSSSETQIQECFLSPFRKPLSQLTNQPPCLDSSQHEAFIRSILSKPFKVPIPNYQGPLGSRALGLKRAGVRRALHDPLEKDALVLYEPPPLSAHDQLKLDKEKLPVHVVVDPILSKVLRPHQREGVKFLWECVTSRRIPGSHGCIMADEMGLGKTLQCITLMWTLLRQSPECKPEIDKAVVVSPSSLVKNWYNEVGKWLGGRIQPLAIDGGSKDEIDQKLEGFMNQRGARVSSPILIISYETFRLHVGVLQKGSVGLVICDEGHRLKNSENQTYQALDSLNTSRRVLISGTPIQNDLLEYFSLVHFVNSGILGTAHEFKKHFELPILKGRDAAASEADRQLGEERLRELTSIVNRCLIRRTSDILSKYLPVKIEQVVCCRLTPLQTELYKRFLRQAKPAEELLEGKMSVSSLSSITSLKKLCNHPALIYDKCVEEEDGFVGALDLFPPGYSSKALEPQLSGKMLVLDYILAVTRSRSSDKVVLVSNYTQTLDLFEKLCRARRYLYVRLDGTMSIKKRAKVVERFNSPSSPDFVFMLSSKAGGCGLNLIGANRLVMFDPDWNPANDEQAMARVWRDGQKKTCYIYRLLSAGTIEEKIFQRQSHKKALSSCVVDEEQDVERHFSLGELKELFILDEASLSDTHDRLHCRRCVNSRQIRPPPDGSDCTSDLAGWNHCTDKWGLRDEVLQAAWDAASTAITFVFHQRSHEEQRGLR

[18] = target: Adenosylmethionine-8-amino-7-oxononanoate aminotransferase (Mycobacterium tuberculosis, UniProt P9WQ81); experiment: Mycobacterium tuberculosis BioA enzyme inhibitor Measured in Biochemical System Using Plate Reader - 2163-02_Inhibitor_Dose_CherryPick_Activity.; type: functional, Mycobacterium tuberculosis UT205
Adenosylmethionine-8-amino-7-oxononanoate aminotransferase, sequence (P9WQ81 whole entry): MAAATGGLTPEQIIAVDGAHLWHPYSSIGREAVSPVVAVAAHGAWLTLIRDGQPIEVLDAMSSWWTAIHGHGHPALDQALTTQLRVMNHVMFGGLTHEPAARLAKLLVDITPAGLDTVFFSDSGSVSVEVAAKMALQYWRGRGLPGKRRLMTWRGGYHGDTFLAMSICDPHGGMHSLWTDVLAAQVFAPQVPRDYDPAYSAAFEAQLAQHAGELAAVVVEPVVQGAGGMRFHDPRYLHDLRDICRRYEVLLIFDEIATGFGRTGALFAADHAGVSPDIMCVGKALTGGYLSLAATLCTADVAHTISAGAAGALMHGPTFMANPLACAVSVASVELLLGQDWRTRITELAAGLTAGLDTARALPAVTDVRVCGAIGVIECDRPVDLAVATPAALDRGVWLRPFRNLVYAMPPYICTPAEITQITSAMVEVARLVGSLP

O=C1C2=C(N=C(S)NC2c2ccc(Cl)cc2)NC(c2ccc(Cl)cc2)N1c1ccc(Cl)cc1 (stereo unspecified)
EC50 [1]: 1.89 µM (active)
EC50 (Streptokinase A): > 150 µM (not active)
EC50 [2]: 3.44 µM (active)
EC50 [3]: > 60 µM (not active)
EC50 (Streptococcus): 2.61 µM (active)
AC50 [4]: 4.68 µM (active)
EC50 [5]: > 260 µM (inactive)
AC50 [6]: 5.92 µM (active)
EC50 (Protein RecA): 13.1 µM (active)
EC50 (Melanocortin receptor 4): 9.63 µM (active)

O=C(OCC(=O)N1CCN(C(=O)COC(=O)c2ccc(O)cc2O)CC1)c1ccc(O)cc1O
IC50 [7]: 3.12 µM (active)
IC50 (Steroidogenic factor 1): 3.09 µM (active)
IC50 [8]: 35.9 µM (inactive)

O=C(Nc1ccc(Cc2ccncc2)cc1)c1ccc([N+](=O)[O-])o1
CC50 [9]: 5.59 µM (active)
CC50 [10]: 4.99 µM (active)
IC50 (cells): 1.3 µM (active)
AC50 (INS1): 7.72 µM (active)
AC50 [11]: 2.71 µM (active)
AC50 [12]: 25.4 µM (active)
AC50 [13]: 13.9 µM (active)
IC50 [7]: 35.9 µM (inactive)
IC50 (Steroidogenic factor 1): 0.831 µM (active)
IC50 [8]: 35.9 µM (inactive)

COc1cccc(-c2nc(NC3CCCC3)c3ccccc3n2)c1O
EC50 [1]: 5.91 µM (active)
EC50 (Streptokinase A): 78.1 µM (inconclusive)
EC50 (Streptococcus): > 150 µM (not active)
AC50 [14]: 3.8 µM (active)
AC50 [11]: 25 µM (active)
EC50 (Mu-type opioid receptor): 92.4 µM (inactive)
EC50 [15]: 7.62 µM (active)

CCOC(=O)c1c(C)n(-c2ccc(OC)cc2)c2ccc(O)c(CN(C)C)c12
AC50 [16]: 34.4 µM (active)
AC50 [17]: 52.6 µM (active)

O=C(NCC(c1ccco1)N1CCN(c2ccccc2F)CC1)C1CCCCC1 (stereo unspecified)
EC50 (Mu-type opioid receptor): 92.5 µM (inactive)
EC50 [15]: 76.1 µM (inactive)

CCC(=O)N1CC[C@@H]2[C@H]1c1cc(-c3cccc(F)c3)ccc1N(C)[C@@H]2CO
AC50 [18]: 2.44 µM (active)

COC(=O)[C@@H]1[C@@H](CO)[C@@H]2Cn3c(ccc(-c4ccccc4)c3=O)[C@@H]2N1Cc1cccc(F)c1
AC50 [18]: 4.33 µM (active)
